The text below walks through data of ChEMBL document CHEMBL4052617, “Antibacterial activity of N-methylbenzofuro[3,2-b]quinoline and N-methylbenzoindolo[3,2-b]-quinoline derivatives and study of their mode of action” (2017).

Calls of active or inactive are those of the source. No cut-off for these calls is given here.

Assay [1] concerns the target T1, Cell division protein FtsZ (Staphylococcus aureus) (UniProt P0A031).
T1 sequence (whole entry): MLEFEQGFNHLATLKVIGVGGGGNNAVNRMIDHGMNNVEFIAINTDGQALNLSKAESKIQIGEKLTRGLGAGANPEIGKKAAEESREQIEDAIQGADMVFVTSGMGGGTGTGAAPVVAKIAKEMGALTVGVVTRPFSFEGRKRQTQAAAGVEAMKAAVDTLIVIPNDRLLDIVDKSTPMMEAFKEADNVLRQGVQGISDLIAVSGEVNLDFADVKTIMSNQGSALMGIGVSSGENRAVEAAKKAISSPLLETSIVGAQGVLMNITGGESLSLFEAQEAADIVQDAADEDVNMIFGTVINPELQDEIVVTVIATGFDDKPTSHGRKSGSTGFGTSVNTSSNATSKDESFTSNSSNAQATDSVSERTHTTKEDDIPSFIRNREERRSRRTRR
The experiment in a line: Inhibition of recombinant N-terminal His6-tagged Staphylococcus aureus FtzS expressed in Escherichia coli BL21 (DE3) cells assessed as reduction in protein protofilament bundling at 8 ug/ml preincubated for 10 mins followed by GTP addition after 15 mins by phosphotungstic acid staining based transmission electron microscopic method.

Assay [2] deals with Staphylococcus aureus. The assay can be described thus: Bactericidal activity against methicillin-resistant Staphylococcus aureus ATCC BAA41 assessed as reduction in colony forming units at 2 times MIC concentration after 6 hrs by time kill assay. The class given is functional.
The target of assay [3] is T1, Cell division protein FtsZ (Staphylococcus aureus). The experiment in a line: Inhibition of recombinant N-terminal His6-tagged Staphylococcus aureus ATCC 29213 FtzS GTPase activity expressed in Escherichia coli BL21 (DE3) cells assessed as reduction in GTP hydrolysis preincubated for 10 mins followed by GTP addition measured after 30 mins by CytoPhos reagent based assay.

For assay [4], the system named is Escherichia coli. The experiment in a line: Antibacterial activity against Escherichia coli ATCC […] expressing NDM-1 beta-lactamase after 18 hrs by Mueller-Hinton broth microdilution method. Type of assay: functional. For orientation: Dilution methods test growth across graded concentrations, often in twofold steps.
Assay [5] concerns Staphylococcus aureus. The experiment in a line: Antibacterial activity against Staphylococcus aureus ATCC 29213 after 18 hrs by cation adjusted Mueller-Hinton broth microdilution method. The class given is functional. The settings on record: ATCC 29213, 18 h.
Assay [6] has as its target T1, Cell division protein FtsZ (Staphylococcus aureus). The experiment in a line: Inhibition of recombinant N-terminal His6-tagged Staphylococcus aureus ATCC 29213 FtzS polymerization expressed in Escherichia coli BL21 (DE3) cells at 16 ug/ml in presence of GTP by fluorescence spectrometry method.
Assay [7] shares this target. The assay can be described thus: Inhibition of recombinant N-terminal His6-tagged Staphylococcus aureus ATCC 29213 FtzS GTPase activity expressed in Escherichia coli BL21 (DE3) cells assessed as reduction in GTP hydrolysis at 8 ug/ml preincubated for 10 mins followed by GTP addition after 30 mins by CytoPhos reagent based assay.
For assay [8], the system named is Escherichia coli. The experiment in a line: Bactericidal activity against Escherichia coli ATCC 25922 assessed as reduction in colony forming units at 4 times MIC concentration after 4 hrs by time kill assay. Type of assay: functional.
In assay [9] the test system is Staphylococcus aureus. The assay can be described thus: Antibacterial activity against methicillin-resistant Staphylococcus aureus ATCC BAA41 after 18 hrs by cation adjusted Mueller-Hinton broth microdilution method. Type of assay: functional. The settings on record: ATCC BAA41, 18 h.
Assay [10] concerns the target T1, Cell division protein FtsZ (Staphylococcus aureus). The assay can be described thus: Inhibition of recombinant N-terminal His6-tagged Staphylococcus aureus ATCC 29213 FtzS polymerization expressed in Escherichia coli BL21 (DE3) cells in presence of GTP by fluorescence spectrometry method.
The subject of assay [11] is Enterococcus faecium. The experiment in a line: Antibacterial activity against antibiotic-susceptile Enterococcus faecium ATCC 49624 after 18 hrs by brain heart infusion broth microdilution method. The settings on record: ATCC 49624, 18 h. Type of assay: functional.
In assay [12] the target is T1, Cell division protein FtsZ (Staphylococcus aureus). The assay can be described thus: Inhibition of recombinant N-terminal His6-tagged Staphylococcus aureus ATCC 29213 FtzS GTPase activity expressed in Escherichia coli BL21 (DE3) cells assessed as reduction in GTP hydrolysis at 16 ug/ml preincubated for 10 mins followed by GTP addition measured after 30 mins by CytoPhos reagent based assay.

Another assay concerns Klebsiella pneumoniae. The assay can be described thus: Antibacterial activity against Klebsiella pneumoniae ATCC BAA2470 expressing NDM-1 beta-lactamase after 18 hrs by Mueller-Hinton broth microdilution method. Type of assay: functional. The conditions noted are these: ATCC BAA2470, 18 h.
Another assay relates to Bacillus subtilis. The experiment in a line: Antibacterial activity against Bacillus subtilis 168 after 18 hrs by Mueller-Hinton broth microdilution method. The class given is functional. The conditions noted are these: subsp. subtilis str. 168, 18 h.
For assay [13], the system named is Staphylococcus aureus. The experiment in a line: Bactericidal activity against methicillin-resistant Staphylococcus aureus ATCC BAA41 assessed as reduction in colony forming units at 1 time MIC concentration after 24 hrs by time kill assay. The class given is functional.
Assay [14] relates to Staphylococcus aureus. The assay can be described thus: Bactericidal activity against methicillin-resistant Staphylococcus aureus ATCC BAA41 assessed as reduction in colony forming units at MIC concentration after 6 hrs by time kill assay. Type of assay: functional.
The test system of a further assay is Pseudomonas aeruginosa. The assay can be described thus: Antibacterial activity against multidrug-resistant Pseudomonas aeruginosa ATCC BAA2108 after 18 hrs by Mueller-Hinton broth microdilution method. The settings on record: ATCC BAA2108, 18 h. Type of assay: functional.
For assay [15], the target named is T1, Cell division protein FtsZ (Staphylococcus aureus). The assay can be described thus: Inhibition of recombinant N-terminal His6-tagged Staphylococcus aureus FtzS expressed in Escherichia coli BL21 (DE3) cells assessed as reduction in protein polymer thickness at 8 ug/ml preincubated for 10 mins followed by GTP addition after 15 mins by phosphotungstic acid staining based transmission electron microscopic method.

For assay [16], the system named is Escherichia coli. The assay can be described thus: Bactericidal activity against Escherichia coli ATCC 25922 assessed as reduction in colony forming units at 1 to 2 times MIC concentration after 24 hrs by time kill assay. Type of assay: functional.
In assay [17] the target is T2, Cell division protein FtsZ (Bacillus subtilis (strain 168)) (UniProt P17865).
T2 sequence (whole entry): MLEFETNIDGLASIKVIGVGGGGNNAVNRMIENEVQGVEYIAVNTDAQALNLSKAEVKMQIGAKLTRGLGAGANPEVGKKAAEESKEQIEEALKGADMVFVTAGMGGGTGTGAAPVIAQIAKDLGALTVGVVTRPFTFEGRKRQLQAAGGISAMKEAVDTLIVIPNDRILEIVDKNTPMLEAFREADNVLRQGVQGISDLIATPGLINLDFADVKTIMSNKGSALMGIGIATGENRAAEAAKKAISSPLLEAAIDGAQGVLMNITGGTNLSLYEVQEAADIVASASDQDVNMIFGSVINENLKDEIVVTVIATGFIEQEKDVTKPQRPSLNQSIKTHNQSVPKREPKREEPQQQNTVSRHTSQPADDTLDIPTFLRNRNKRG
The experiment in a line: Inhibition of Bacillus subtilis 168 GTPase activity of FtsZ assessed as increase in cell length at 2 ug/ml after 4 hrs by phase-contrast optical microscopic analysis. The settings on record: Bacillus subtilis subsp. subtilis str. 168.

In assay [18] the target is T1, Cell division protein FtsZ (Staphylococcus aureus). The experiment in a line: Inhibition of recombinant N-terminal His6-tagged Staphylococcus aureus ATCC 29213 FtzS GTPase activity expressed in Escherichia coli BL21 (DE3) cells assessed as reduction in GTP hydrolysis at 4 ug/ml preincubated for 10 mins followed by GTP addition measured after 30 mins by CytoPhos reagent based assay.

Assay [19] has as its system Escherichia coli. The assay can be described thus: Antibacterial activity against Escherichia coli ATCC 25922 after 18 hrs by Mueller-Hinton broth microdilution method. The class given is functional. The conditions noted are these: ATCC 25922, 18 h.
The subject of assay [20] is Enterococcus faecium. The experiment in a line: Antibacterial activity against vancomycin-resistant Enterococcus faecium ATCC 700221 after 18 hrs by brain heart infusion broth microdilution method. The settings on record: ATCC 700221, 18 h. Type of assay: functional.

As to `COc1ccc(Nc2c3ccccc3[n+](C)c3c2[nH]c2ccccc23)cc1.[I-]`, the inhibition result (in assay [1]; in [6]; in the assay with Escherichia coli [8]; in assay [15]; in the assay on Escherichia coli [16]) was “Active” in each case. Besides, the Activity came to 1 ×10³ CFU/ml in the assay on Staphylococcus aureus [2], 1 ×10³ CFU/ml in the assay with Staphylococcus aureus [13] and 1 ×10² CFU/ml in the assay on Staphylococcus aureus [14]. Further, the inhibition (in general, the percentage by which the read-out fell short of the control) was “Dose-dependent effect” in assay [3]; 50% in [7]; “Dose-dependent effect” in [10]; 60% in [12]; 20% in assay [18]. For the same compound, the MIC (usually the lowest concentration found to suppress growth) against Escherichia coli [4] was 6 µg/mL; against Staphylococcus aureus [5] it was 2 µg/mL; against Staphylococcus aureus [9], 2 µg/mL; in the assay on Enterococcus faecium [11], 4 µg/mL; against Klebsiella pneumoniae it was 48 µg/mL; against Bacillus subtilis, 2 µg/mL. In addition, the MIC with Pseudomonas aeruginosa was determined as 48 µg/mL; in the assay on Escherichia coli [19], 6 µg/mL; in the assay with Enterococcus faecium [20], 4 µg/mL. Further, the result in [17] was Active.
